Measured values reported in paper PMC10419174, “WR1065 conjugated to thiol-PEG polymers as novel anticancer prodrugs: broad spectrum efficacy, synergism, and drug resistance reversal” (Frontiers in Oncology, 2023).
Values joined by “and” are separate entries in the source; they are usually repeats but may differ in a detail not shown here. Equal values may be shown once. Read-outs that look alike come from different tables or passages of the source.

Legend:
human cancer cell lines = assay: cells
Experimental: (§1) The percentage of growth inhibition was calculated as follows: […]

Prostate LNCaP cells = assay: cells
Experimental: as §1

Ovary TOV21G cells = assay: cells
Experimental: as §1

Ovary SKOV3 cells = assay: cells
Experimental: as §1

Prostate PC3 cells = assay: cells
Experimental: as §1

NCI-H1975 NSCLC cells = assay: cells
Experimental: as §1

Prostate DU145 cells = assay: cells
Experimental: as §1

A549 NSCLC cells = assay: cells
Experimental: as §1

NCI-H460 NSCLC cells = details: 48-h treatment, amifostine ND = not definable up to 500 µM
Excerpt: To test anticancer effectiveness of individual drugs or drug combinations, the CyQUANT®-NF proliferation assay was used with a plate reader (i) to generate standard curves for cell numbers for each cell line, (ii) to measure the starting cell numbers at initiation of drug treatment, and (iii) to obtain fluorescence readings from cells in 96-well plates for comparisons to a standard curve for the relevant cancer cell line and quantifying cell viability after drug treatments. […] Trypan blue exclusion was used to estimate cell numbers in a few pilot experiments and thereafter was applied to confirm very low viable cell numbers and cell death.
A series of experiments was conducted to determine the relative efficacy of 4SP65, 1LP65, and amifostine as single agents in the same human cancer cell lines.
Five metrics were calculated and used to characterize the shape of the dose-response curve following exposure to a single test agent. Using cell numbers based on fluorescence measurements and standard curves, the percentage growth was calculated at each drug concentration level. The percentage of growth inhibition was calculated as follows:
where Tz = cell numbers or fluorescence counts at time xero, C = vehicle-exposed control cell numbers at the end of the assessment time period, and Ti = test agent-exposed cell numbers or fluorescence counts at each drug concentration. […] The LC50/99 was calculated using Equation 2 = -50 and Eq. 2 = -99, respectively. […] For NHMECs, the relationships between drug exposure levels and fluorescence units were used to define dose-response metrics. The selectivity index values for individual drugs were calculated using IC50 levels in NHMECs divided by the IC50 value for each cancer cell line. Statistical comparisons of differences in individual dose-response metrics between drug treatments and cell lines were conducted using Student’s t-test, with P-values <0.05 considered significant.
Relative cell growth inhibition values for differing levels of each drug alone and in combination were input into SynergyFinder to generate dose-response curves for each drug alone and to produce a dose-response matrix. The dose-response matrix data then were used in generating a two-dimension heatmap and three-dimension volcano plot to visualize the distribution of areas of differing degrees of synergism and to calculate average and maximum synergy scores in selected human cancer cell lines. The expected drug combination responses were calculated using both the Highest Single Agent (HSA) model and the Zero interaction potency (ZIP) model.

NCI-H1437 NSCLC cells = details: 48-h treatment, amifostine ND = not definable up to 500 µM
Experimental: as §1

[1] = 1LP65: average across 11 cell lines, 48 h
[2] = 15 cell lines for 4SP65, 11 for 1LP65
[3] = average of HCC38, MDA-MB-231, H1975, DU145, PC3
[4] = averages of dose-response metrics across the panel
[5] = averages over 11 cell lines, minimal fold differences
[6] = 48-h treatment, amifostine ND = not definable up to 500 µM
[7] = read-out: LC50, 48-h treatment, amifostine ND = not definable up to 500 µM
[8] = pretreated with 1 mM DFMO for 24 h, then 48 h
[9] = without DFMO pretreatment, 48 h

COCCOCCOCCOCCOCCOCCSSCCNCCCN.O=C(O)C(F)(F)F.O=C(O)C(F)(F)F [1LP65, m-PEG6-S-S-WR1065]
fold greater effect than amifostine (human cancer cell lines): 2.1 fold
LC99, All cell lines (human cancer cell lines; [1]): 126 ± 15.8 µM
TGI, All cell lines (human cancer cell lines; [1]): 69.3 ± 10.3 µM
LC99, range for individual cell lines (human cancer cell lines; [2]): 83.5 to 234 µM
TGI, range for individual cell lines (human cancer cell lines; [2]): 32.7 to 126 µM
fold lower concentrations in TP53-mutant compared to TP53 wild-type cell lines (human cancer cell lines; H1437 and TOV21G excluded, across dose-response metrics): ~ 1.8 fold
LC99, TP53 Wild-Type (human cancer cell lines; average of A549, H460, LNCaP): 161 ± 20.4 µM
TGI, TP53 Wild-Type (human cancer cell lines; average of A549, H460, LNCaP): 101 ± 20.1 µM
LC99, TP53 Mutant (human cancer cell lines; [3]): 95.1 ± 9.9 µM
TGI, TP53 Mutant (human cancer cell lines; [3]): 52.0 ± 7.3 µM
fold more potent than amifostine as a cytostatic agent, average (human cancer cell lines; [4]): 5.9 fold
fold more potent than amifostine as a cytostatic agent, range (human cancer cell lines; [4]): 5.0- to 6.4 fold
Fold difference in drug potency vs amifostine: GI50 (human cancer cell lines; [5]): > 5.0
Fold difference in drug potency vs amifostine: IC50 (human cancer cell lines; [5]): > 6.4
Fold difference in drug potency vs amifostine: TGI (human cancer cell lines; [5]): > 6.3
GI50 (human cancer cell lines; read-out: GI50, All cell lines, 1LP65: average across 11 cell lines, 48 h): 41.2 ± 5.4 µM
GI50 (human cancer cell lines; read-out: GI50, TP53 Mutant, average of HCC38, MDA-MB-231, H1975, DU145, PC3): 33.3 ± 3.7 µM
GI50 (human cancer cell lines; read-out: GI50, TP53 Wild-Type, average of A549, H460, LNCaP): 52.7 ± 12.4 µM
GI50 (human cancer cell lines; read-out: GI50, range for individual cell lines, 15 cell lines for 4SP65, 11 for 1LP65): 21.3 to 77.7 µM
CC50 (human cancer cell lines; read-out: LC50, All cell lines, 1LP65: average across 11 cell lines, 48 h): 94.6 ± 12.8 µM
CC50 (human cancer cell lines; read-out: LC50, TP53 Mutant, average of HCC38, MDA-MB-231, H1975, DU145, PC3): 72.9 ± 9.5 µM
CC50 (human cancer cell lines; read-out: LC50, TP53 Wild-Type, average of A549, H460, LNCaP): 133 ± 19.1 µM
CC50 (human cancer cell lines; read-out: LC50, range for individual cell lines, 15 cell lines for 4SP65, 11 for 1LP65): 51.3 to 157 µM
GI50 (human cancer cell lines; read-out: average GI50): 30.4 µM
GI50 (Prostate LNCaP cells; [6]): 28.3 ± 1.9 µM
IC50 (Prostate LNCaP cells; [6]): 44.3 ± 2.8 µM
LC99 (Prostate LNCaP cells; [6]): 114 ± 8.4 µM
TGI (Prostate LNCaP cells; [6]): 51.7 ± 3.8 µM
Dose reduction value AMF ÷ 1LP65 (Prostate LNCaP cells; at GI50): 5.3 fold
Dose reduction value AMF ÷ 1LP65 (Prostate LNCaP cells; at IC50): 8.5 fold
CC50 (Prostate LNCaP cells; [7]): 88.8 ± 7.1 µM
GI50 (Ovary TOV21G cells; [6]): 21.3 ± 3.8 µM
IC50 (Ovary TOV21G cells; [6]): 26.3 ± 3.6 µM
LC99 (Ovary TOV21G cells; [6]): 92.0 ± 2.8 µM
TGI (Ovary TOV21G cells; [6]): 32.7 ± 6.2 µM
Dose reduction value AMF ÷ 1LP65 (Ovary TOV21G cells; at GI50): 2.2 fold
Dose reduction value AMF ÷ 1LP65 (Ovary TOV21G cells; at IC50): 1.6 fold
CC50 (Ovary TOV21G cells; [7]): 51.3 ± 12.2 µM
GI50 (Ovary SKOV3 cells; [6]): 40.9 ± 0.5 µM
IC50 (Ovary SKOV3 cells; [6]): 45.5 ± 2.5 µM
LC99 (Ovary SKOV3 cells; [6]): 98.9 ± 8.6 µM
TGI (Ovary SKOV3 cells; [6]): 50.3 ± 2.0 µM and 50.3 µM
Dose reduction value AMF ÷ 1LP65 (Ovary SKOV3 cells; at GI50): 2.0 fold
Dose reduction value AMF ÷ 1LP65 (Ovary SKOV3 cells; at IC50): 6.5 fold
CC50 (Ovary SKOV3 cells; [7]): 68.8 ± 1.8 µM
GI50 (Prostate PC3 cells; [6]): 22.9 ± 1.8 µM
IC50 (Prostate PC3 cells; [6]): 37.5 ± 4.6 µM
LC99 (Prostate PC3 cells; [6]): 86.3 ± 8.9 µM
TGI (Prostate PC3 cells; [6]): 40.5 ± 2.8 µM and 40.5 µM
Dose reduction value AMF ÷ 1LP65 (Prostate PC3 cells; at GI50): 2.3 fold
Dose reduction value AMF ÷ 1LP65 (Prostate PC3 cells; at IC50): 2.8 fold
Dose reduction value AMF ÷ 1LP65 (Prostate PC3 cells; at TGI): 7.4 fold
CC50 (Prostate PC3 cells; [7]): 60 ± 1.1 µM
GI50 (NCI-H1975 NSCLC cells; [6]): 38.9 ± 2 µM
IC50 (NCI-H1975 NSCLC cells; [6]): 52.3 ± 4.4 µM
LC99 (NCI-H1975 NSCLC cells; [6]): 86.8 ± 2.7 µM
TGI (NCI-H1975 NSCLC cells; [6]): 51.8 ± 4.9 µM
Dose reduction value AMF ÷ 1LP65 (NCI-H1975 NSCLC cells; at GI50): 3.3 fold
CC50 (NCI-H1975 NSCLC cells; [7]): 63.3 ± 5.2 µM
GI50 (Prostate DU145 cells; [6]): 26.3 ± 3.8 µM
IC50 (Prostate DU145 cells; [6]): 39.8 ± 3.1 µM
LC99 (Prostate DU145 cells; [6]): 83.5 ± 5.5 µM
TGI (Prostate DU145 cells; [6]): 52.8 ± 5.3 µM and 52.8 µM
Dose reduction value AMF ÷ 1LP65 (Prostate DU145 cells; at GI50): 4.8 fold
Dose reduction value AMF ÷ 1LP65 (Prostate DU145 cells; at IC50): 8.0 fold
CC50 (Prostate DU145 cells; [7]): 71.4 ± 4.3 µM
CC50 (A549 NSCLC cells): 155 ± 8 µM
GI50 (A549 NSCLC cells): 52.3 µM and 52 µM
IC50 (A549 NSCLC cells): 66.6 ± 7.9 µM
LC99 (A549 NSCLC cells): 187 ± 11 µM
TGI (A549 NSCLC cells): 126 ± 3 µM and 126 µM
Dose reduction value AMF ÷ 1LP65 (A549 NSCLC cells; at GI50): 5.5 fold
Dose reduction value AMF ÷ 1LP65 (A549 NSCLC cells; at IC50): 4.4 fold
GI50 (A549 NSCLC cells; [8]): 17.1 µM
IC50 (A549 NSCLC cells; [8]): 33.1 µM
GI50 (A549 NSCLC cells; [9]): 38.6 µM
IC50 (A549 NSCLC cells; [9]): 51 µM
GI50 (NCI-H460 NSCLC cells): 77.7 ± 15 µM
IC50 (NCI-H460 NSCLC cells): 90.1 ± 16.6 µM
LC99 (NCI-H460 NSCLC cells): 182 ± 6.7 µM
TGI (NCI-H460 NSCLC cells): 124 ± 13.3 µM and 124 µM
CC50 (NCI-H460 NSCLC cells; read-out: LC50): 155 ± 5.1 µM
GI50 (NCI-H1437 NSCLC cells): 66.2 ± 4.2 µM
IC50 (NCI-H1437 NSCLC cells): 74.8 ± 2.1 µM
LC99 (NCI-H1437 NSCLC cells): 234 ± 16 µM
TGI (NCI-H1437 NSCLC cells): 109 ± 17 µM
CC50 (NCI-H1437 NSCLC cells; read-out: LC50): 157 ± 14 µM
